Test results reported in publication PMC5334642, “A Peptide Amphiphile Organogelator of Polar Organic Solvents” (Scientific Reports, 2017).

Key:
[1] = Rheology of the gels (strain sweep, frequency sweep, thixotropic test); type: physicochemical
Method: […]-C8 therefore forms a very stiff but brittle gel.
An aliquot (550 μL) of this solution was then cast onto an Anton Paar MCR 302 rheometer (parallel plate geometry, 25 mm diameter, 1 mm gap) and left to gel over the course of 4 h. A solvent trap and Peltier hood was used to prevent any evaporation during gelation. Frequency sweeps were performed from 0.1–10 Hz, at a constant strain of 0.2% and three repeats performed on separate samples. Strain sweeps were performed from 0.1–100% at a constant frequency of 1 Hz.

[2] = Gelation by inversion test; settings: for minimum gel concentration (MGC): inversion test
[3] = Solubility in water and organic solvents
[4] = hydrogel of similar PA; cited from earlier work
Excerpt: This is consistent with previous findings that increasing the proportion of valines in the β-sheet forming region of a PA results in an increase in gel stiffness. With PAs such as […]16, the β-sheet signal in the CD spectrum is red-shifted by a magnitude that inversely correlates with gel stiffness, and this has been attributed to the extent of twisting of the sheets, i.e., stiffer gels involve stronger peptide interactions with the least t ...

In the case of N-Octanoic acid-Val3-His-Gly-Val3, the “gel stiffness (approximated by G')” value ([1]; 0.20 wt.% gel in 50% acetonitrile/water, frequency sweep 0.1-10 Hz at constant 0.2% strain, three repeats on separate samples) is reported as 1.5 × 10^5 Pa, the “cross-over point under oscillatory strain” value ([1]; DMF organogel) is reported as “no cross-over point observed” and the “strain at which mechanical properties deviate from the linear viscoelastic region” value ([1]; gel from 0.20 wt.% solution in 50% acetonitrile/water, strain sweep 0.1-100% at constant frequency of 1 Hz) is reported as “less than 1 % strain”. For the same substance, the “cross-over point from gel to liquid (G' = G'')” value ([1]; gel from 0.20 wt.% solution in 50% acetonitrile/water, strain sweep at constant frequency of 1 Hz) was 3 % strain, the “minimum gel concentration (MGC)” value ([2]; DMF) was 0.06 wt.% and the “minimum gel concentration (MGC)” value ([2]; acetone) was 0.06 wt.%. For the same substance, the “gel formation in chloroform” value ([2]; chloroform solution) was “did not form gels”, the “gel formation in dichloromethane” value ([2]; dichloromethane solution) was “did not form gels” and the “gel formation in dimethyl sulfoxide” value ([2]; dimethyl sulfoxide solution) was “did not form gels”. For the same substance, the “gel formation in ethanol” value ([2]; ethanol solution) was “did not form gels”, the “gel formation in isopropanol” value ([2]; isopropanol solution) was “did not form gels” and the “gel formation in methanol” value ([2]; methanol solution) was “did not form gels”. For the same substance, the “gel formation in toluene” value ([2]; toluene solution) was “did not form gels”, the “solubility in DMF” value ([3]; DMF) was “dissolved” and the solubility in acetonitrile ([3]; acetonitrile) was “insoluble”. The solubility in dichloromethane ([3]; dichloromethane) was “dissolved”, the “solubility in dimethyl sulfoxide” value ([3]; dimethyl sulfoxide) was “dissolved” and the “solubility in ethyl acetate” value ([3]; ethyl acetate, heating to reflux temperatures and sonicating for up to one hour) was “did not dissolve”.
In the case of “EEEAAAVVV-C16 [previously reported hydrogel-forming peptide amphiphile studied by the Stupp and Nguyen groups]”, the gel stiffness [4] is given as < 10^4 Pa.
For N- Val3-His-Gly-Val3, the “gelation of acetonitrile/water solutions” value ([2]; acetonitrile/water mixtures) was “did not gelate”, the “solubility in acetonitrile/water mixtures” value ([3]; mixtures of acetonitrile and water, VVVGHVVV-C8 with sonication) was “soluble” and the solubility in water ([3]; water, regardless of pH, temperature and sonication) was “peculiarly soluble in water”.
